Measured values as given in patent US4710489A, “Glutathione delivery system” (Cornell Research Foundation, Inc., priority 1985, dated 1987).

Tests used:
[1] = test system: glutathione levels of the liver and kidney; test: Glutathione levels of liver and kidney of mice pretreated with buthionine sulfoximine (Example 2); assay type: in vivo
Excerpt: Controls were again given saline, with tissue levels of GSH being determined at the indicated intervals. Values are means ±S.D., using groups of 3 mice each.

GSH level in the liver = GSH level in the liver after sublethal acetaminophen (Example 7); assay type: in vivo; settings: acetaminophen 2.5 mmol/kg i.p.; for GSH level in the liver: starved mice, test compound 10 mmol/kg i.p. half an hour later
Description: Groups of three starved mice were intraperitoneally treated with 2.5 mmol/kg (less than the lethal dose) of acetaminophen, and half an hour later 10 mmol/kg of the test compound was intraperitoneally administered to the mice. […] When other thiols such as L-cysteine and L-cysteine methyl ester were administered under the same conditions, the GSH level in the liver was markedly low.

[2] = test system: level of liver glutathione; settings: for glutathione level of the liver: fasted mice, acetaminophen 2.5 mmol/kg i.p., test compound 10 mmol/kg one-half hour later
Description: In this example, fasted mice were injected intraperitoneally with acetaminophen (2.5 mmol/kg), and one-half hour later (indicated by arrow in FIG. 3), they were given GSH monomethyl ester, GSH, L-cysteine, L-cysteine methyl ester (10 mmol/kg) or an equivalent volume of 0.15 M NaCl (control). Tissue GSH levels were determined at the indicated intervals on groups (3) of mice; values are means ±S.D.

mice [3] = test: Survival of starved mice after lethal dose of acetaminophen (Example 8); assay type: in vivo; settings: acetaminophen 5 mmol/kg i.p., test compound 10 mmol/kg one hour later, 15 mice, 7 days
Excerpt: Starved mice were intraperitoneally treated with 5 mmol/kg (lethal dose) of acetaminophen and, one hour later, with 10 mmol/kg of the test compound.

[4] = test system: GSH levels in the liver and in the kidney; test: GSH levels in liver and kidney after 35S-labeled test compound, GSH synthesis inhibited by buthionine sulfoximine (Example 5); assay type: in vivo; settings: mice, i.p. 7.5 mmol/kg, two hours after treatment, buthionine sulfoximine 2 mmol/kg 14 and 4 hours before dissection
Description: Groups of 3 or 4 mice, each having a body weight of 18 to 22g, were starved over a period of 12 hours and treated intraperitoneally with a dose of 7.5 mmol/kg of the test compound labeled by ^35 S (GSH labeled by ^35 S was used as the starting material). Two hours after the treatment, the test mice were dissected, and the liver and kidney were taken out. These organs were homogenized in 5 fold volume of 5% sulfosalicylic acid and centrifuged over a period of 5 minutes to give 0.05 ml of a supernatant fluid. The supernatant fluid was admixed with 0.95 ml of water and 4 ml of monofluorine scintillation fluid, and the ^35 S content was assayed by the use of an LKB scintillation counter. On the other hand, the supernatant fluid was treated with monobromobimane and subjected to HPLC to determine the amount of the test compound. The intracellular GSH synthesis was inhibited by administering intraperitoneally 2 mmol/kg of buthionine sulfoximine 14 hours and 4 hours before the dissection.

[5] = test system: glutamic-pyruvic acid transaminase (GPT) activity in serum; test: Serum GPT activity after acetaminophen (Example 9, Table 1); assay type: in vivo, Male ICR mice; settings: half an hour after acetaminophen 2.5 mmol/kg, blood 8 hours after acetaminophen, ± SD
Description: Male ICR mice, each having a body weight of 30 to 40 g, were starved over a period of 15 hours and intraperitoneally treated with 2.5 mmol/kg of acetaminophen. The acetaminophen was used as a solution in Cremophore buffer (i.e. physiological saline solution containing 10% Cremophore and 1.5% ethanol). Half an hour later a designed amount of the test compound was intraperitoneally administered to the mice. The test compound was used as a solution in physiological saline adjusted to pH 6.5. […] Then, the glutamic-pyruvic acid transaminase (GPT) activity in serum was assayed. The results are shown in Table 1 as a percentage to that of the control group to which only acetaminophen was administered.
Note: Figure is a percentage of blood GPT activity to that of Control
Group (± Standard Deviation (n = 4 - 16)).

[6] = test system: GSH level in the liver and in the kidney; test: GSH level in liver and kidney of starved mice (Example 6); assay type: in vivo; settings: i.p. 10 mmol/kg, 2 to 3 hours after the administration
Description: The test compound was dissolved in sterile water to give a test solution. Groups of 3 mice, each having a body weight of 20 to 25 g, were starved over a period of 24 hours and treated intraperitoneally with a dose of 10 mmol/kg of the test compound. Mice were dissected by every two hours, and the liver and kidney were taken out. GSH analysis was performed on each of the organs.

[7] = test system: glutathione level of the liver and kidney; test: Glutathione levels of liver and kidney of fasted mice given glutathione ester or glutathione (Example 1, Comparative Example 1); assay type: in vivo; settings: for glutathione in the kidney / glutathione level of the liver: fasted mice, i.p. 10 millimoles per kilogram, 2 hours after administration, vs saline controls
Description: A solution of the glutathione ester was prepared in aseptic water. […] At intervals of 2 hours, as shown in FIGS. 1(a) and (b), the animals were decapitated and the liver and kidney tissues were removed and analyzed for glutathione. Using groups of 3 mice each, values are given as means ±S.D.

mice [8] = test system: mice
[9] = buthionine sulfoximine 2 mmol/kg, before ester
[10] = mice pretreated with 2 mmol/kg buthionine sulfoximine, ester 10 mmol/kg i.p. 4 hours after the inhibitor

Structure (SMILES)	GSH level in the liver (GSH level in the liver)	glutathione level of the liver [2]	survival (mice [3])	GSH level in the kidney [4]	GSH level in the liver [4]	percentage of blood GPT activity to that of Control Group ([5]; Dosage 0.01 mmol/kg i.p.) [%]	percentage of blood GPT activity to that of Control Group ([5]; Dosage 0.1 mmol/kg i.p.) [%]	percentage of blood GPT activity to that of Control Group ([5]; Dosage 0.3 mmol/kg i.p.) [%]	percentage of blood GPT activity to that of Control Group ([5]; Dosage 1 mmol/kg i.p.) [%]	GSH level in the kidney [6]	GSH level in the liver [6]	other results
CCCCS(=N)(=O)CCC(N)C(=O)O (centres unmarked) [buthionine sulfoximine, reference compound]	–	–	–	–	–	–	–	–	–	–	–	glutathione level of the kidney after the inhibitor [1, 9]: decreased to a very low value; glutathione level of the liver after the inhibitor [1, 9]: decreased to a very low value
COC(=O)[C@@H](N)CS [L-cysteine methyl ester, reference compound]	markedly low	much less	–	–	–	–	–	–	–	–	–	–
CC(C)OC(=O)CNC(=O)[C@H](CS)NC(=O)CC[C@H](N)C(=O)O [GSH monoisopropyl ester, Isopropyl γ-L-glutamyl-L-cysteinylglycinate]	marked elevation	–	survived	more than 2.0 μmol/g	more than 1.0 μmol/g	75.2 ± 15.0	19.8 ± 7.9	8.8 ± 3.5	3.8 ± 0.5	substantial elevation	substantial elevation	percentage of blood GPT activity to that of Control Group ([5]; Dosage 0.03 mmol/kg i.p.): 51.2 ± 15.6%
CC(C)COC(=O)CNC(=O)[C@H](CS)NC(=O)CC[C@H](N)C(=O)O [GSH monoisobutyl ester, Isobutyl γ-L-glutamyl-L-cysteinylglycinate]	marked elevation	–	survived	more than 2.0 μmol/g	more than 1.0 μmol/g	84.1 ± 13.0	44.8 ± 14.8	–	3.6 ± 0.4	substantial elevation	substantial elevation	–
N[C@@H](CCC(=O)N[C@@H](CS)C(=O)NCC(=O)O)C(=O)O [GSH, L-γ-glutamyl-L-cysteinyl-glycine, reference compound]	–	–	–	0.560 µmol/g	0.582 µmol/g	–	105.3 ± 20.1	68.5 ± 16.3	4.2 ± 0.5	slight elevation	No elevation	glutathione in the kidney [7]: only a slight effect; glutathione level of the liver [7]: no effect
COC(=O)CNC(=O)[C@H](CS)NC(=O)CC[C@H](N)C(=O)O [glutathione monomethyl ester]	–	increased markedly	–	–	–	–	–	–	–	–	–	glutathione level in kidney [1, 10]: substantial increase; glutathione level in liver [1, 10]: substantial increase; glutathione in the kidney [7]: increased substantially; glutathione level of the liver [7]: increased substantially; fatalities (mice [8]; acetaminophen 5 mmole per kilogram, ester 10 mmole per kilogram 1 hour later, 15 mice, 7 days): no fatalities
CCCCCCOC(=O)CNC(=O)[C@H](CS)NC(=O)CC[C@H](N)C(=O)O [GSH mono-n-hexyl ester, n-Hexyl γ-L-glutamyl-L-cysteinylglycinate]	marked elevation	–	survived	more than 2.0 μmol/g	more than 1.0 μmol/g	100.6 ± 31.3	60.6 ± 15.8	13.2 ± 0.3	3.0 ± 0.3	substantial elevation	substantial elevation	percentage of blood GPT activity to that of Control Group ([5]; Dosage 0.03 mmol/kg i.p.): 82.3 ± 33.5%
CCOC(=O)CNC(=O)[C@H](CS)NC(=O)CC[C@H](N)C(=O)O [glutathione monoethyl ester, L-γ-Glutamyl-L Cysteinyl Glycyl Ethyl Ester]	–	–	–	–	–	–	–	–	–	–	–	effects on tissue glutathione levels compared with glutathione monomethyl ester ([7]; comparison of monoethyl with monomethyl ester): about the same
N[C@@H](CS)C(=O)O [L-cysteine, reference compound]	markedly low	much less	–	–	–	–	–	–	–	–	–	–
CC(=O)Nc1ccc(O)cc1 [acetaminophen, reference compound]	–	–	–	–	–	–	–	–	–	–	–	lethality of acetaminophen alone (mice [8]; 5 mmole per kilogram, 40 mice, within 7 days): all of the mice died; GSH level in the liver after acetaminophen alone (GSH level in the liver; control group given 0.15 M saline): Marked fall; level of liver glutathione after acetaminophen alone ([2]; sublethal dose 2.5 mmol/kg i.p., control given 0.15 M NaCl): marked decrease
